Key:
[1] = test system: primary wild-type mouse splenocytes; experiment: radiosensitivity of primary splenocytes after exposure to DIDS (cell counts after 2.5 Gy); assay type: cell-based; settings: Splenocyte, light or radiation study, 36 h, read-out: reduction in viability
Protocol: To validate DIDS as a potential agent, and to confirm its DSB repair inhibitory activity, radiosensitivity of primary wild-type mouse splenocytes was measured after exposure to DIDS. A total of 2×10^6 splenocytes were suspended in medium with 0, 300 μM, 600 μM or 1000 μM DIDS, or in vehicle-only control, and immediately given 2.5 Gy ionizing irradiation using a ^137Cs irradiator (Shepard). Cells were then cultured in medium containing the same DIDS concentration, and cell counts were determined after 36 hours recovery time.

[2] = test system: primary mouse splenic B-cells (B220+ IgM+); experiment: radiosensitization of primary mouse B-cells by DIDS (Trypan blue dye exclusion); assay type: cell-based; settings: 2.5 Gy gamma irradiation combined with DIDS, starting at 50 micromolar, 24 hours after irradiation
Protocol: Primary mouse splenic B-cells were isolated from normal, wild-type C57BL/6J mice as described in Example 1 and sorted with magnetic beads (Miltenyi) to enrich B220+ IgM+ B-cells. Purified B-cells were cultured in complete RPMI-1640 medium with 10% FBS with 0, 50, 100, or 150 micromolar DIDS. Cells were then subjected to either 0 (FIG. 14, filled circles) or 2.5 Gy (=250 rads; FIG. 14, open circles) of gamma irradiation in a Cs137 irradiator. Cell viability was subsequently scored for each condition and plotted relative to the no DIDS condition by manual cytometry using a hemacytometer and Trypan blue dye exclusion 24 hours after irradiation. The fraction of viable cells is reported normalized to the corresponding 0 μM DIDS condition. Error bars represent the standard error of the mean (S.E.M) from three independent experiments.

[3] = test system: cells isolated from the spleens of wild type or AID knockout (−/−) mice; experiment: splenocyte viability, Guava EasyCyte Flow Cytometer Assay; assay type: cell-based, mouse; settings: 150 μM DIDS, stimulated with anti-CD40 antibodies and IL-4
Protocol: Cells isolated from the spleens of wild-type (WT) or AICDA knock-out (−/−) mice were stimulated with anti-CD40 antibodies and IL-4 on day 0 and day 2. DIDS was added on day 0 and day 2 at concentrations of 0 or 150 μM. WT cells stimulated with anti-CD40 antibodies plus IL-4 and treated with DIDS are shown as filled boxes, AICDA−/− cells stimulated with anti-CD40 antibodies plus IL-4 and treated with DIDS as circle; WT cells stimulated with anti-CD40 antibodies plus IL-4 are shown as open diamonds; and AICDA−/− cells stimulated with anti-CD40 plus IL-4 antibodies as open triangles. The total number of viable cells was determined every other day. Days are shown on the x-axis and the fraction of viable cells is shown on the y-axis.
Cells were isolated from the spleens of wild type or AID knockout (−/−) mice, cultured and stimulated with anti-CD40 antibodies and IL-4 on day 0 and day 2. DIDS was added on day 0 and day 2 at concentrations of 0 or 150 μM. The total number of viable cells was determined every other day using Guava EasyCyte Flow Cytometer Assay.

[4] = test system: AID-expressing (AID+) primary human CLL cells; experiment: survival of primary human CLL cells cultured with DIDS (manual cytometry); assay type: cell-based
Protocol: AID-expressing (AID+) or AID-negative (AID−) primary human CLL cells were cultured as described in Example 4. […] […] The cell survival was scored by manual cytometry for viable cells after 2, 4, or 8 days of exposure.
Eight AID+ and eight AID− CLL samples were cultured in basic RPMI-1640 medium plus 30 micromolar DIDS, and survival was scored by manual cytometry for viable cells after 2, 4, 6, or 8 days. […] A total of 117 lymphoma or leukemia patients were studies, of which 106 were CLL patients. In 47% AID expression was determined by RT-PCR.

[5] = test system: activated caspase 3 (AC3) in AID+ and AID− primary human CLL cells; experiment: activated caspase 3 (AC3) staining in primary human CLL cells treated with DIDS; assay type: cell-based; settings: 30 μM DIDS, 3 days in culture
Description: Primary human CLL patient derived cells were obtained from peripheral bleeds collected at the time of routine clinical monitoring. Primary peripheral blood samples were collected via routine venipuncture into BD Vacutainer CPT Cell Separation Tubes. Samples were centrifuged to separate red blood cells (RBC) and then inverted to resuspend the mononuclear cells in their own plasma. Samples were stored overnight at the site of collection at room temperature then shipped via courier to the site of analysis. Each sample was tested for AID expression status by reverse transcription PCR (RT-PCR) to detect presence of the human AID mRNA (see Example 11). Samples were then divided into AID+ (those showing detectable levels of AID mRNA) and AID− (those showing no detectable AID mRNA above background) groups. Multiple independent cultures from different AID+ and AID− samples were initiated in standard RPMI-1640 medium containing 10% FBS plus either 0 or 30 μM DIDS. After 3 days in culture, cells from were fixed with paraformaldehyde, mounted on microscope coverslips, permeabilized by washing with weak detergent, and processed for immunofluorescent detection of the apoptosis marker activated caspase 3 (AC3) (primary antibody: cat. No. ab13847, Abcam; 1:100 dilution). Nuclear DNA was counterstained with 4′,6-diamidino-2-phenylindole (DAPI). […]

Rad51 = target: T1, Rad51 (Homo sapiens, UniProt Q06609); settings: cited from earlier work
T1 sequence (Q06609 1-339): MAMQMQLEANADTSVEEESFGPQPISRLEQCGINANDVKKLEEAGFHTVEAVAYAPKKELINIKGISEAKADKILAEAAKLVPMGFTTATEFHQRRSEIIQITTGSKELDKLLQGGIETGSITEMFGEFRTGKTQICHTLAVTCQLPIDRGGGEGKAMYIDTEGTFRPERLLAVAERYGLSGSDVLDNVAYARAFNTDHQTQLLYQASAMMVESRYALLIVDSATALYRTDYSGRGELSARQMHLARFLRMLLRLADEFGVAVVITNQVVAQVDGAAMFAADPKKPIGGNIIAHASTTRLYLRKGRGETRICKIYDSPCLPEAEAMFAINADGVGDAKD

## O=S(=O)([O-])c1cc(N=C=S)ccc1/C=C/c1ccc(N=C=S)cc1S(=O)(=O)[O-].[Na+].[Na+] [DIDS, 4,4′diisothiocyanostilbene-2,2′-disulfonic acid]
[1]
  cytotoxicity at 600 µM: ~25%
  cytotoxicity at 1000 µM: 87%
[2]
  fraction of viable cells: reduces viability significantly
[3]
  total number of viable cells: lower viability
[4]; 10 μM DIDS
  cell viability: significant effects on cell viability
[4]; 30 micromolar DIDS, 2, 4 or 8 days
  cell survival (viable cells): reduced cell viability
[4]; 30 micromolar DIDS, eight AID+ and eight AID− CLL samples, 2, 4, 6 or 8 days
  cell viability, AID-positive versus AID-negative: more strongly reduces cell viability in AID-positive than in AID-negative primary human CLL cells
[5]
  fraction of cells showing positive staining for AC3: higher fraction of AC3-positive cells
Rad51
  effect on Rad51 complexes and heteroduplex formation: disrupts Rad51 complexes and inhibits heteroduplex formation
